The text below walks through data of ChEMBL document CHEMBL1155123, “Synthesis and discovery of autophagy inducers for A549 and H460 lung cancer cells, novel 1-(2'-hydroxy-3'-aroxypropyl)-3-aryl-1H-pyrazole-5-carbohydrazide derivatives” (Bioorg Med Chem Lett, 2008).

Data set [1] concerns A549. Briefly: Growth inhibition of human A549 cells after 96 hrs by MTT assay. The format is functional, cell-based. The settings on record: A549, 96 h.
Data set [2] deals with A549. The data set can be described thus: Induction of autophagy in human A549 cells assessed as nuclear and acidic compartment morphology at 10 to 80 uM after 24 hrs. The format is functional, cell-based.
The test system of data set [3] is A549. Briefly: Induction of necrosis in human A549 cells assessed as LDH release at 80 uM after 24 hrs. The format is functional, cell-based. (In general: LDH in the medium is a marker of cell lysis.)
The subject of data set [4] is NCI-H460. The data set can be described thus: Induction of autophagy in human H460 cells assessed as nuclear and acidic compartment morphology at 80 uM after 24 hrs. It counts as functional, cell-based.
The subject of data set [5] is A549. Briefly: Induction of autophagy in human A549 cells assessed as nuclear and acidic compartment morphology at 80 uM after 48 hrs. It counts as functional, cell-based.
The subject of data set [6] is A549. Briefly: Induction of necrosis in human A549 cells assessed as LDH release at 80 uM after 48 hrs. The format is functional, cell-based.
In data set [7] the test system is A549. The data set can be described thus: Growth inhibition of human A549 cells after 48 hrs by MTT assay. The settings on record: A549, 48 h. The format is functional, cell-based.
The subject of data set [8] is NCI-H460. Briefly: Induction of necrosis in human H460 cells assessed as LDH release at 80 uM after 48 hrs. The format is functional, cell-based.
Data set [9] deals with NCI-H460. The data set can be described thus: Induction of autophagy in human H460 cells assessed as nuclear and acidic compartment morphology at 80 uM after 48 hrs. The format is functional, cell-based.
The subject of data set [10] is NCI-H460. The data set can be described thus: Induction of apoptosis in human H460 cells assessed as nuclear and acidic compartment morphology at 80 uM. It counts as functional, cell-based.
Data set [11] deals with A549. The data set can be described thus: Induction of apoptosis in human A549 cells assessed as nuclear and acidic compartment morphology at 80 uM. It counts as functional, cell-based.
For data set [12], the system named is NCI-H460. Briefly: Induction of necrosis in human H460 cells assessed as LDH release at 80 uM after 24 hrs. It counts as functional, cell-based.
Data set [13] has as its system A549. Briefly: Antiproliferative activity against human A549 cells assessed as cell viability at 40 uM after 24 hrs by MTT assay. It counts as functional. The settings on record: A549, 24 h, read-out: Activity. On the technique in general: Tetrazolium assays rely on reduction of a dye to a coloured formazan, in cell work by metabolically active cells.
In data set [14] the test system is A549. Briefly: Antiproliferative activity against human A549 cells assessed as cell viability at 40 uM after 48 hrs by MTT assay relative to control. As to conditions: A549, 48 h, read-out: Activity. It counts as functional.
Data set [15] has as its system A549. Briefly: Antiproliferative activity against human A549 cells assessed as cell viability at 80 uM after 48 hrs by MTT assay. The format is functional. As to conditions: A549, 48 h, read-out: Activity.
The subject of data set [16] is A549. The data set can be described thus: Effect on morphological changes in human A549 cells at 10 to 80 uM after 48 hrs. It counts as functional, cell-based.
Data set [17] deals with A549. Briefly: Antiproliferative activity against human A549 cells assessed as cell viability at 80 uM after 96 hrs by MTT assay. The format is functional. The settings on record: A549, 96 h, read-out: Activity.
The subject of data set [18] is HUVEC. Briefly: Antiproliferative activity against HUVEC assessed as cell viability after 48 hrs by MTT assay. The format is cell-based. The settings on record: human.
The subject of data set [19] is A549. The data set can be described thus: Effect on morphological changes in human A549 cells at 10 to 80 uM after 24 hrs. The format is functional, cell-based.
Data set [20] concerns HUVEC. The data set can be described thus: Antiproliferative activity against HUVEC assessed as cell viability after 24 hrs by MTT assay. The format is cell-based. As to conditions: human.
Data set [21] relates to HUVEC. Briefly: Induction of HUVEC growth at 10 uM after 24 hrs by MTT assay. The format is functional, cell-based. As to conditions: Homo sapiens.

The structures appear in SMILES notation. Calls of active or inactive are those of the source. The rule behind the calls is not given here.

The IC50 is the point on the concentration scale where inhibition reaches its midpoint. A low value points to inhibition by little substance. `COc1ccccc1OCC(O)Cn1nc(-c2ccccc2)cc1C(=O)NN` (centres undefined): the IC50 was found to be 49 µM in the data set on A549 [1] and 72 µM in the data set on A549 [7]. Moreover, the result in the data set on A549 [2], in the data set on NCI-H460 [4], with A549 [5] and with NCI-H460 [9] was Active. The outcome in the data set on A549 [3], in the data set on A549 [6], in the data set with NCI-H460 [8], in the data set on NCI-H460 [10], in the data set with A549 [11] and with NCI-H460 [12] was inactive.
As for `COc1ccc(-c2cc(C(=O)NN)n(CC(O)COc3ccccc3OC)n2)cc1` (centres undefined), the 50% inhibitory concentration (IC50) was found to be 51 µM in the data set with A549 [1] and 70 µM in the data set with A549 [7]. Further, the outcome in the data set on A549 [2], in the data set on NCI-H460 [4], in the data set on A549 [5] and with NCI-H460 [9] was Active. The outcome in the data set with A549 [3], in the data set with A549 [6], in the data set on NCI-H460 [8], in the data set on NCI-H460 [10], with A549 [11] and with NCI-H460 [12] was inactive.
`COc1ccc(-c2cc(C(=O)NN)n(CC(O)COc3ccc(Cl)cc3)n2)cc1` (centres undefined): the IC50 in the data set on A549 [1] stood at 35 µM; in the data set with A549 [7], 39 µM. For the same compound, the viability at 40 µM with A549 [13] is 62%; in the data set with A549 [14], 40%. Moreover, the outcome in the data set with A549 [2], in the data set with NCI-H460 [4], with A549 [5] and in the data set with NCI-H460 [9] was Active. Besides, the outcome with A549 [3], in the data set with A549 [6], with NCI-H460 [8], with NCI-H460 [10], in the data set with A549 [11] and in the data set with NCI-H460 [12] was inactive.
Take `COc1ccccc1OCC(O)Cn1nc(-c2ccc(Cl)cc2)cc1C(=O)NN` (centres undefined): the IC50 stood at 40 µM with A549 [1] and 74 µM in the data set with A549 [7]. Besides, the result in the data set on A549 [2], in the data set with NCI-H460 [4], in the data set with A549 [5] and in the data set on NCI-H460 [9] was Active. For the same compound, the result with A549 [3], in the data set on A549 [6], in the data set on NCI-H460 [8], in the data set on NCI-H460 [10], in the data set on A549 [11] and in the data set with NCI-H460 [12] was inactive.
On to `NNC(=O)c1cc(-c2ccccc2)nn1CC(O)COc1ccc([N+](=O)[O-])cc1` (centres undefined), for which the IC50 in the data set on A549 [1] is 45 µM; with A549 [7], 72 µM. Besides, the outcome in the data set on A549 [2], in the data set with NCI-H460 [4], in the data set on A549 [5] and in the data set on NCI-H460 [9] was Active. Moreover, the outcome in the data set with A549 [3], in the data set with A549 [6], in the data set with NCI-H460 [8], in the data set with NCI-H460 [10], in the data set with A549 [11] and with NCI-H460 [12] was inactive.
Turning to `NNC(=O)c1cc(-c2ccccc2)nn1CC(O)COc1ccc(Cl)cc1` (centres undefined), the values for the viability at 80 µM in the data set on A549 [15] and with A549 [17] were 29% and 6%, respectively. Moreover, the IC50 in the data set on A549 [1] was 30 µM; in the data set with A549 [7], 48 µM. Also, the viability at 40 µM in the data set with A549 [13] was 72%; in the data set with A549 [14], 56%. Besides, the result in the data set on A549 [2], with NCI-H460 [4], in the data set with A549 [16], with A549 [5], in the data set on NCI-H460 [9] and in the data set on A549 [19] was Active. In addition, the outcome in the data set with A549 [3], in the data set with A549 [6], in the data set with NCI-H460 [8], in the data set on NCI-H460 [10], with A549 [11] and with NCI-H460 [12] was inactive. Further, the Activity result in the data set with HUVEC [18] and in the data set with HUVEC [20] was “Not Active” throughout.
For the compound `NNC(=O)c1cc(-c2ccc(Cl)cc2)nn1CC(O)COc1ccc([N+](=O)[O-])cc1` (centres undefined), the viability at 80 µM in the data set with A549 [15] was determined as 29%; with A549 [17], 6%. Moreover, the half-maximal inhibitory concentration (IC50) in the data set on A549 [1] was found to be 37 µM; in the data set on A549 [7], 39 µM. In addition, the viability at 40 µM with A549 [13] was found to be 72%; in the data set with A549 [14], 56%. The result in the data set with A549 [2], in the data set on NCI-H460 [4], in the data set with A549 [5] and with NCI-H460 [9] was Active. Further, the outcome in the data set with A549 [3], in the data set on A549 [6], with NCI-H460 [8], with NCI-H460 [10], in the data set on A549 [11] and in the data set with NCI-H460 [12] was inactive.
On to `NNC(=O)c1cc(-c2ccc(Cl)cc2)nn1CC(O)COc1ccc(Cl)cc1` (centres undefined), for which the values for the viability at 80 µM in the data set with A549 [15] and in the data set on A549 [17] were 29% and 6%, respectively. Besides, the IC50 with A549 [1] came to 27 µM; with A549 [7] it was 32 µM. Further, the viability at 40 µM in the data set on A549 [13] was 72%; in the data set with A549 [14] it was 56%. For the same compound, the result with A549 [2], in the data set with NCI-H460 [4], in the data set on A549 [16], in the data set on HUVEC [21], in the data set on A549 [5] and with NCI-H460 [9] was Active. In addition, the result in the data set on A549 [19] was Active. The result in the data set with A549 [3], in the data set on A549 [6], in the data set with NCI-H460 [8], with NCI-H460 [10], in the data set with A549 [11] and in the data set on NCI-H460 [12] was inactive. The Activity result with HUVEC [18] and in the data set on HUVEC [20] was “Not Active” each time.
